Test system: Kuramochi cells
Test: BrdU Cell Proliferation Assay
Format: cell-based
Details: read-out: BrdU - KURAMOCHI.1: IC50
Method: A BrdU assay was used as a measure of proliferation based on the DNA replication process of proliferating cells. BrdU, a pyrimidine analog, is added to the cell culture and incorporated into the DNA of proliferating cells. The presence of the BrdU analog was then measured through a colorimetric ELISA. After fixation and permeabilization of cells, peroxidase-conjugated antibody recognizing BrdU is added and allowed to incubate, followed by thorough washing to remove unbound antibody. In order to quantify the amount of bound antibody, peroxidase substrate is added and produces a color that can be measured at 450 nm.
On day −1, Kuramochi cells (Sekisui XenoTech JCRB0098) were seeded at 2,000 cells/well in columns 2-12 of a 96 well plate (Corning, CLS3596) in 150 μL media and allowed to adhere overnight at 37 degree with 5% CO2.
On day 0, the source plate was prepared by adding 10 mM compounds and performing 3-fold serial dilutions for a 10-point dose response of each compound. Using a multichannel pipette, 2 μL of the contents of the source plate were stamped into an intermediate plate with 500 μL of RPMI 1640 Media, GlutaMAX Supplement (Life Technologies, 61870127) in each well of a Nunc 96 DeepWell™ plate, non-treated 96 DeepWell plate, 2 mL/well, sterile, natural, 60/cs (Sigma Z717274) and mixed thoroughly. 50 μL from each well of this intermediate plate were added to 4 wells of a 96-well plate with previously seeded Kuramochi cells.
On day 4, the plates were developed using the BrdU ELISA Cell Proliferation Assay according to manufacturer's instructions (Roche, 11647229001). Briefly, BrdU was diluted 1:100 in Gibco®, OptiMEM® and 20 μL/well was added, shaken for 10 minutes at 350 rpm, and then returned to the incubator for 1 hour. Following incubation, the medium was discarded, and the cells were fixed by adding 200 μL of Fix/Denature solution. The anti-BrdU peroxidase antibody was diluted 1:1000 in OptiMEM, added at 100 μL/well, and incubated while shaking (350 rpm) for one hour. Three washes with PBS were performed to remove any unbound antibody, followed by the addition of 100 μL of substrate solution to each well. 25 μL/well of 1M sulfuric acid solution was then added to halt the reaction, and plates were read out using an Envision spectrophotometer (Perkin Elmer) set to read 450 nm absorbance. Background absorbance values from empty wells were subtracted from all samples and then normalized to DMSO treated wells.

SMILES | IC50 [µM]
CNC(=O)[C@@H](NC(=O)C1CN(C(=O)c2cnn(Cc3ccccc3)c2)CC12CN(C(=O)C1CC1(C)C)C2)[C@@H](C)OCC1CCCCC1 (mixture of isomers) [I-12] | 0.5 to 5
C[C@H](CNC(=O)C1CN(C(=O)c2cnn(Cc3ccccc3)c2)CC12CN(C(=O)C1CC1(C)C)C2)OCc1ccccc1 (stereo partly drawn) [I-7] | > 10
C[C@@H](OCc1ccccc1)[C@H](NC(=O)C1CN(C(=O)c2cnn(Cc3ccccc3)c2)CC12CN(C(=O)[C@H]1CC1(C)C)C2)C(=O)O (stereo partly drawn) [I-9, (2S,3R)-2-(6-(1-benzyl-1H-pyrazole-4-carbonyl)-2-((S)-2,2-dimethylcyclopropanecarbonyl)-2,6-diazaspiro[3.4]octane-8-carboxamido)-3-(benzyloxy)butanoic acid] | > 10
CNC(=O)[C@@H](NC(=O)C1CN(C(=O)c2cnn(Cc3cccnc3)c2)CC12CN(C(=O)C1CC1(C)C)C2)[C@@H](C)OCc1ccccc1 (stereo partly drawn) [I-15] | > 10
CNC(=O)[C@@H](NC(=O)[C@@H]1CN(Cc2cnn(Cc3ccccc3)c2)CC12CN(C(=O)[C@H]1CC1(C)C)C2)[C@@H](C)OCc1ccccc1 [I-16A] | > 10
CNC(=O)[C@@H](NC(=O)[C@H]1CN(Cc2cnn(Cc3ccccc3)c2)CC12CN(C(=O)[C@H]1CC1(C)C)C2)[C@@H](C)OCc1ccccc1 [I-16B] | > 10
CNC(=O)[C@@H](NC(=O)[C@@H]1CN(C(=O)c2cnn(CC3CCN(C(C)=O)CC3)c2)CC12CN(C(=O)[C@H]1CC1(C)C)C2)[C@@H](C)OCc1ccccc1 [I-17A] | > 10
CNC(=O)[C@@H](NC(=O)[C@H]1CN(C(=O)c2cnn(CC3CCN(C(C)=O)CC3)c2)CC12CN(C(=O)[C@H]1CC1(C)C)C2)[C@@H](C)OCc1ccccc1 [I-17B] | > 10
CNC(=O)[C@@H](NC(=O)[C@@H]1CN(C(=O)c2cnn(CC3CCNCC3)c2)CC12CN(C(=O)[C@H]1CC1(C)C)C2)[C@@H](C)OCc1ccccc1 [I-19A] | > 10
CNC(=O)[C@@H](NC(=O)[C@H]1CN(C(=O)c2cnn(CC3CCNCC3)c2)CC12CN(C(=O)[C@H]1CC1(C)C)C2)[C@@H](C)OCc1ccccc1 [I-19B] | > 10
C[C@@H](OCc1ccccc1)[C@H](NC(=O)C1CN(C(=O)c2cnn(Cc3ccccc3)c2)CC12CN(C(=O)[C@H]1CC1(C)C)C2)C(=O)NCC#CCO (stereo partly drawn) [I-20] | > 10
C[C@@H](OCc1ccccc1)C(NC(=O)C1CN(C(=O)c2cnn(Cc3ccccc3)c2)CC12CN(C(=O)[C@H]1CC1(C)C)C2)C(=O)NCCOCCOCCO (stereo partly drawn) [I-21] | > 10
C[C@@H]1C[C@H](C)CN(C(=O)[C@@H](NC(=O)C2CN(C(=O)c3cnn(Cc4ccccc4)c3)CC23CN(C(=O)[C@H]2CC2(C)C)C3)[C@@H](C)OCc2ccccc2)C1 (stereo partly drawn) [I-22] | 0.5 to 5
CNC(=O)[C@@H](NC(=O)[C@@H]1CN(C(=O)c2cnn(CC3CCN(C)CC3)c2)CC12CN(C(=O)[C@H]1CC1(C)C)C2)[C@@H](C)OCc1ccccc1 [I-23A] | > 10
CNC(=O)[C@@H](NC(=O)[C@H]1CN(C(=O)c2cnn(CC3CCN(C)CC3)c2)CC12CN(C(=O)[C@H]1CC1(C)C)C2)[C@@H](C)OCc1ccccc1 [I-23B] | > 10
CNC(=O)[C@@H](NC(=O)[C@@H]1CN(C(=O)c2cncs2)CC12CN(C(=O)[C@H]1CC1(C)C)C2)[C@@H](C)OCc1ccccc1 [I-24A, (S)—N-((2S,3R)-3-(benzyloxy)-1-(methylamino)-1-oxobutan-2-yl)-2-((S)-2,2-dimethylcyclopropane-1-carbonyl)-6-(thiazole-5-carbonyl)-2,6-diazaspiro[3.4]octane-8-carboxamide] | > 10
CNC(=O)[C@@H](NC(=O)[C@H]1CN(C(=O)c2cncs2)CC12CN(C(=O)[C@H]1CC1(C)C)C2)[C@@H](C)OCc1ccccc1 [I-24B] | > 10
CNC(=O)[C@@H](NC(=O)[C@@H]1CN(C(=O)c2cnn(Cc3ccccc3)c2)CC12CN(C(=O)Cc1ccccc1)C2)[C@@H](C)OCc1ccccc1 [I-25A, (S)-6-(1-benzyl-1H-pyrazole-4-carbonyl)-N-((2S,3R)-3-(benzyloxy)-1-(methylamino)-1-oxobutan-2-yl)-2-(2-phenylacetyl)-2,6-diazaspiro[3.4]octane-8-carboxamide] | > 10
CNC(=O)[C@@H](NC(=O)[C@H]1CN(C(=O)c2cnn(Cc3ccccc3)c2)CC12CN(C(=O)Cc1ccccc1)C2)[C@@H](C)OCc1ccccc1 [I-25B] | > 10
CNC(=O)[C@@H](NC(=O)[C@@H]1CN(C(=O)c2cnn(Cc3ccccc3)c2)CC12CN(C(=O)c1ccccc1)C2)[C@@H](C)OCc1ccccc1 [I-26A] | > 10
CNC(=O)[C@@H](NC(=O)[C@H]1CN(C(=O)c2cnn(Cc3ccccc3)c2)CC12CN(C(=O)c1ccccc1)C2)[C@@H](C)OCc1ccccc1 [I-26B] | > 10

SMILES | IC50 [µM]
CNC(=O)[C@@H](NC(=O)[C@@H]1CN(C(=O)c2cnn(Cc3ccccc3)c2)CC12CN(C(=O)CC1CCC1)C2)[C@@H](C)OCc1ccccc1 [I-27A] | > 10
CNC(=O)[C@@H](NC(=O)[C@H]1CN(C(=O)c2cnn(Cc3ccccc3)c2)CC12CN(C(=O)CC1CCC1)C2)[C@@H](C)OCc1ccccc1 [I-27B] | > 10
C[C@@H](OCc1ccccc1)[C@H](NC(=O)C1CN(C(=O)c2cnn(Cc3ccccc3)c2)CC12CN(C(=O)[C@H]1CC1(C)C)C2)C(=O)NCC#CCN (stereo partly drawn) [I-28] | > 10
C[C@@H](OCc1ccccc1)[C@H](NC(=O)C1CN(C(=O)c2cnn(Cc3ccccc3)c2)CC12CN(C(=O)[C@H]1CC1(C)C)C2)C(=O)NCCC(=O)O (stereo partly drawn) [I-29] | > 10
C[C@@H](OCc1ccccc1)[C@H](NC(=O)C1CN(C(=O)c2cnn(Cc3ccccc3)c2)CC12CN(C(=O)[C@H]1CC1(C)C)C2)C(=O)NCCO (stereo partly drawn) [I-30] | > 10
C[C@@H](OCc1ccccc1)[C@H](NC(=O)C1CN(C(=O)c2cnn(Cc3ccccc3)c2)CC12CN(C(=O)[C@H]1CC1(C)C)C2)C(=O)NCCN (stereo partly drawn) [I-31] | > 10
C[C@@H](OCc1ccccc1)[C@H](NC(=O)C1CN(C(=O)c2cnn(Cc3ccccc3)c2)CC12CN(C(=O)[C@H]1CC1(C)C)C2)C(=O)N1CCNCC1 (stereo partly drawn) [I-32] | > 10
CNC(=O)[C@@H](NC(=O)[C@@H]1CN(C(=O)c2cnn(C)c2)CC12CN(C(=O)[C@H]1CC1(C)C)C2)[C@@H](C)OCc1ccccc1 [I-33A] | > 10
CNC(=O)[C@@H](NC(=O)[C@H]1CN(C(=O)c2cnn(C)c2)CC12CN(C(=O)[C@H]1CC1(C)C)C2)[C@@H](C)OCc1ccccc1 [I-33B] | > 10
CNC(=O)[C@@H](NC(=O)[C@@H]1CN(C(=O)C2CCOCC2)CC12CN(C(=O)[C@H]1CC1(C)C)C2)[C@@H](C)OCc1ccccc1 [I-38A] | > 10
CNC(=O)[C@@H](NC(=O)[C@H]1CN(C(=O)C2CCOCC2)CC12CN(C(=O)[C@H]1CC1(C)C)C2)[C@@H](C)OCc1ccccc1 [I-38B] | > 10
CNC(=O)[C@@H](NC(=O)[C@H]1CN(C(=O)c2cnco2)CC12CN(C(=O)[C@H]1CC1(C)C)C2)[C@@H](C)OCc1ccccc1 [I-39B] | > 10
CNC(=O)[C@@H](NC(=O)[C@@H]1CN(Cc2ccccn2)CC12CN(C(=O)[C@H]1CC1(C)C)C2)[C@@H](C)OCc1ccccc1 [I-40A] | > 10
CNC(=O)[C@@H](NC(=O)[C@H]1CN(Cc2ccccn2)CC12CN(C(=O)[C@H]1CC1(C)C)C2)[C@@H](C)OCc1ccccc1 [I-40B] | > 10
CNC(=O)[C@@H](NC(=O)[C@@H]1CN(C(=O)c2cn[nH]c2)CC12CN(C(=O)CC1CC1)C2)[C@@H](C)OCc1ccccc1 [I-41A, (S)—N-((2S,3R)-3-(benzyloxy)-1-(methylamino)-1-oxobutan-2-yl)-2-(2-cyclopropylacetyl)-6-(1H-pyrazole-4-carbonyl)-2,6-diazaspiro[3.4]octane-8-carboxamide] | > 10
CNC(=O)[C@@H](NC(=O)[C@H]1CN(C(=O)c2cn[nH]c2)CC12CN(C(=O)CC1CC1)C2)[C@@H](C)OCc1ccccc1 [I-41B] | > 10
CNC(=O)[C@@H](NC(=O)[C@@H]1CN(C(=O)c2cccnc2)CC12CN(C(=O)[C@H]1CC1(C)C)C2)[C@@H](C)OCc1ccccc1 [I-42A] | > 10
CNC(=O)[C@@H](NC(=O)[C@H]1CN(C(=O)c2cccnc2)CC12CN(C(=O)[C@H]1CC1(C)C)C2)[C@@H](C)OCc1ccccc1 [I-42B] | > 10
CNC(=O)[C@@H](NC(=O)[C@@H]1CN(C(=O)c2cnn(CC(F)(F)F)c2)CC12CN(C(=O)CC1CC1)C2)[C@@H](C)OCc1ccccc1 [I-43A] | > 10
CNC(=O)[C@@H](NC(=O)[C@H]1CN(C(=O)c2cnn(CC(F)(F)F)c2)CC12CN(C(=O)CC1CC1)C2)[C@@H](C)OCc1ccccc1 [I-43B] | > 10
CNC(=O)[C@@H](NC(=O)[C@@H]1CN(C(=O)c2cnc[nH]2)CC12CN(C(=O)[C@H]1CC1(C)C)C2)[C@@H](C)OCc1ccccc1 [I-44A] | > 10

— patent US12065445B2, “CDK2 inhibitors and methods of using the same” (Cedilla Therapeutics, Inc., priority 2021, dated 2024)
